Reference: US11471484B2, “Fullerene and its use to maintain good health and to prolong the expected lifespan of mammals” (priority 2011, dated 2022)

Tests used:
rats [1] = test: Longevity and chronic toxicity study in rats, oral gavage; assay type: in vivo
Procedure: The rats were housed one per cage and acclimated for 14 days, before dosing. Three groups of 10 rats (10 months old, weighing 495±31 g) were administered daily for one week, then weekly until the end of the second month and then every two weeks until the end of the 7th month, by gavages with 1 ml of water or olive oil or Ceo dissolved in olive oil (0.8 mg/ml), respectively. The rats were weighed before each dosing. Routine observations following official recommendations (EC Commission Directive 2004/73/EC of 29 Apr. 2004 Adapting to Technical Progress for the Twenty-Ninth Time Council Directive 67/548/EEC on the Approximation of the Laws, Regulations and Administrative Provisions Relating to the Classification, Packaging and Labeling of Dangerous Substances. O.J. No. L1522004) were made on all animals inside and outside the cage once a day throughout the study for signs of departure from normal activity, morbidity and mortality.
This experiment was initiated after observing that Ceo is absorbed through oral administration. To study the chronic toxicity of Ceo we designed a protocol according to the general guidelines of US food and drug administration (Chronic Toxicity Studies with Rodents in Toxicological Principles for the Safety Assessment of Food Ingredients. Redbook 2000, revised July 2007, Chapter IV.C.5.a. IV.C.5.a.) with some modifications. […]

[2] = test system: acute carbon tetrachloride intoxication in rats (free-radical-mediated liver injury); conditions: CCl4 model, intra-peritoneal, aqueous suspension; cited from earlier work
rats [3] = test: Acute or sub-acute toxicity in rats; assay type: in vivo; conditions: large amounts administered
Description: (§1) Free radicals are constantly formed in vivo. Some of these molecules are physiologically useful, but they can also result in pathological oxidative stress to cells and tissues. Endogenous defences include both antioxidants and repairing systems. However, excess production of free radicals, their production in inappropriate relative amounts or deficiencies in endogenous defences can have deleterious effects. Free radicals can cause oxidative damage to lipids, DNA, bio molecules, rises in the concentration of intracellular calcium, as well as activation of proteases, nucleases and protein kinases. Considerable evidence supports the view that oxidative damage involving free radicals occurs in most, if not all, human diseases. Oxidative stress is now recognized as an important contributor to the development of many human diseases including liver fibrosis, ischemia-reperfusion, atherosclerosis, several neurological disorders and age-related cancer as well as to process of ageing. Thus antioxidants and systems that can protect against oxidative stress are needed to maintain health and prolong the expected lifespan in metazoans. This has led to attempts to develop additional antioxidants to supplement the antioxidant defences of cells as potential therapeutic agents. […]

[4] = Dissolution of C60 in vegetable oil; assay type: physicochemical; conditions: in less than one week
Description: as §1

[5] = Pharmacokinetics and biodistribution of an oily solution after oral and intra-peritoneal administration in rats; assay type: in vivo, male Wistar rats
Procedure: Pharmacokinetic studies were carried out with male Wistar rats (weighing 200-220 g). Rats were housed in individual cages and maintained in an air-conditioned room (22-25° C.) on a 12 h light/dark cycle with water and food available. The rats were acclimated for 7 days and they were fasted overnight but with access to water, before treatment.
Under general anesthesia, a catheter was introduced into the rat right jugular vein, positioned subcutaneously with the tip in the inter-scapular region. The prepared rats were then allowed to recover for 24 h, and the blood catheters were flushed with 0.9% NaCl solution containing 20 I U/ml of heparin to avoid possible clot obstruction. Before Ceo administration, the rats were fasted overnight but with access to water. The same single dose of Ceo (4 mg/kg) was delivered orally, by a gavages needle, or intra-peritoneally to two groups of three rats. Blood (0.20 ml) was withdrawn via the canular prior to dosing (f=0) and at 15, 30, 60 min and then at 2, 4, 8, 10, 12, 24 and 48 h post-dosing. Antithrombin heparin (20 IU/ml) was added in each blood sample. After each blood collection 0.20 ml of sterile 0.9% NaCl solution were injected to the animal, to avoid hypovolemia. The rats were sacrificed 48 h after eo administration for organ collection (livers, spleens, and brains).
Consequently, the area under the curve (AUC) is about 5 times larger when Ceo is administered by i.p. route as compared to oral route.

[6] = test system: acute carbon tetrachloride intoxication in rats (free-radical-mediated liver injury); test: C60-induced protection of the liver against acute toxicity of carbon tetrachloride in rats; assay type: in vivo; conditions: CCl4 model
Description: Carbon tetrachloride is a classical hepatotoxicant that causes rapid liver damage progressing from steatosis to centrilobular necrosis. CCU intoxication in rodents is an important model far elucidation of the mechanism of action of hepatotoxic effects such as fatty degeneration, fibrosis, hepatocellular death, and carcinogenicity. These effects are consistent with the known induced metabolic activation of CCl4 to reactive intermediates, including CCl3″ and CCl02′ free radicals, and mobilization of intracellular calcium. Kupffer cells (liver resident macrophages) participate in the mechanism of toxicity of CCl4 in vivo by release of chemoattractants for neutrophils and a series of chemical mediators (cytokines). Both expression and synthesis of these cytokines are mainly modulated through redox-sensitive reactions. […] In a previous work, the effects of C60-pretreatments on acute carbon tetrachloride intoxication in rats, a classical model for studying free-radical-mediated liver injury was reported.

mice = test: Acute or sub-acute toxicity in mice; assay type: in vivo; conditions: large amounts administered
Description: as §1

c12c3c4c5c1c1c6c7c2c2c8c3c3c9c4c4c%10c5c5c1c1c6c6c%11c7c2c2c7c8c3c3c8c9c4c4c9c%10c5c5c1c1c6c6c%11c2c2c7c3c3c8c4c4c9c5c1c1c6c2c3c41 [[60]fullerene]
longevity (rats [1]; oral administration): increases significantly the longevity | behaviour or growth disorder (rats [1]; per os 1 ml of olive oil containing 0.8 mg C60 (FIG. 1)): No behaviour or growth disorder could be observed | day of better protection after administration [2]: 14 days | most effective dose [2]: about 2.5 g/kg of body-weight | acute or sub-acute toxicity (rats [3]): no acute or sub-acute toxicity could be observed | amount dissolved per g of oil ([4]; olive oil): up to 1 mg of C60 per g | amount dissolved per g of oil ([4]; soybean oil): up to 1 mg of C60 per g | area under the curve (AUC), i.p. route as compared to oral route ([5]; 4 mg/kg, i.p. versus oral): about 5 times | distribution, brain barrier ([5]; 4 mg/kg, oral or i.p.): can cross the brain barrier | absorption and elimination ([5]; intraperitoneal or oral administration): absorbed and eliminated | activity in solution compared with suspension ([6]; compared with results of Nano Letters 2005): about 100 times | time of effect after administration ([6]; fullerene in solution): 24 h | acute or sub-acute toxicity (mice): no acute or sub-acute toxicity could be observed
